One data set has as its target T1, CXCR2 (Mus musculus, UniProt P35343).
T1 construct: from tissue; host or cells: whole animal: wild-type C57BL/6J mice (receptor on the animals' own neutrophils)
T1 sequence (P35343 1-359): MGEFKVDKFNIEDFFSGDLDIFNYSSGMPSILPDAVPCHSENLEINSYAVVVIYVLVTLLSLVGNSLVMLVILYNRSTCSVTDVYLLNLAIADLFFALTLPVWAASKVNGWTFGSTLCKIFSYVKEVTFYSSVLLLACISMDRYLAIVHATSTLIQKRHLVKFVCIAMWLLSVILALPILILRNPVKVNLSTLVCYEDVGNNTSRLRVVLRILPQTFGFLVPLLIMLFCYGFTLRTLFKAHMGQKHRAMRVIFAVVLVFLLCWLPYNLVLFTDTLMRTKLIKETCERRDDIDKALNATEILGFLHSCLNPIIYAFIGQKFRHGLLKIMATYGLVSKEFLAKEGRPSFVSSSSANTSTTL
The experiment in a line: CXCR2 inhibitor SB265610 in Dox-treated wild-type mice. It is filed as in vivo. Particulars: 2 mg/kg/day i.p. Here is the method: (§1) Doxorubicin administration.
SB265610 (CXCR2 inhibitor) administration. SB265610 (1-(2-Bromophenyl)-3-(4-cyano-1H-benzo[d] [1,2,3]triazol-7-yl)urea, N-(2-Bromophenyl)-N′-(7-cyano-1H-benzotriazol-4-yl)urea; Catalog No. SML0421; Sigma-Aldrich, St. Louis, Missouri, United States of America) was used to inhibit neutrophil infiltration into tissues. Mice were injected intraperitoneally with 2 mg/kg of SB265610, once a day, over a time course that starts 1 day before the start of doxorubicin administration until the end of the study. The solution of SB265610 was prepared in sterile dimethyl sulfoxide (DMSO) to a concentration of 10 mg/ml. The aliquoted mixture was stored at −20° C. and thawed before use. The solution was mixed with corn oil (Sigma Catalog No. C8267) to minimize the toxic effect of DMSO just before injection. Injections were performed using a sterile syringe and needle (29G). The expiration date of the mixture coincided with the expiration date of the SB265610.

Data set [1] has as its system myeloid-specific Trp53-deficient mice (Lyz2^Cre/+Trp53^fl/fl). The following applies: mouse, in vivo.
Text: (§3) Mice. Wild-type mice (Cd45.2), Trp53-insufficient mice, Trp53^R27OH mice, Trp53-floxed mice, Lyz2-Cre mice, Pep Boy mice (Cd45.1), and Ccr2^gfp/gfp mice were obtained from The Jackson Laboratory (stock 000664, 002103, 008182, 008462, 004781, 002014, and 027619, respectively). All strains are C57BL/6J background. Mice with myeloid-restricted Trp53 ablation were generated by crossing Trp53-floxed mice (Trp53^fl/fl) with Lyz2-Cre mice. Male mice were used for both in vivo and in vitro experiments unless otherwise noted. Mice were housed in a specific pathogen-free animal facility and given food and water ad libitum on 12-hour dark/light schedule.
(§4) Doxorubicin administration. Pattern 1: adoptive BMT mice were injected with doxorubicin 6 weeks after BMT using a model of therapy-related clonal hematopoiesis (Wang et al., 2020) involving 3 rounds of 2 mg/kg i.p. injection, with 3 weeks between each round. Pattern 2: competitive BMT mice, Trp53-Myelo-KO mice, Ccr2^gfp/gfp mice, and mice in neutrophil depletion and neutrophil recruitment inhibition studies were injected with doxorubicin with a dose of 15 μg/g (body weight) split into 3 injections at indicated time points. […]
(§5) Quantitative RT-PCR. […] Gene expression was calculated relative to 36b4 and normalized to controls. Data were calculated by AACt approach.
Data set [2] shares this test system. The experiment in a line: Dox-induced cardiotoxicity in myeloid-specific Trp53-deficient mice. The following applies: Lyz2^Cre/+Trp53^fl/fl vs control mice treated with Dox.
Text: as §3, §4, §5
Another data set deals with Ccr2-deficient mice. Kind of data set: Dox-induced cardiac toxicity in Ccr2-deficient mice. It is filed as in vivo. Particulars: Ccr2-deficient relative to wild-type mice, 15 μg/g split into 3 injections, 4 weeks.
Text: Mice. […] All strains are C57BL/6J background.
as §1

Data set [3] concerns Trp53 mutant hematopoietic cells. Kind of data set: Adoptive bone marrow transplantation model of Trp53 clonal hematopoiesis with cycles of Dox; flow cytometry chimerism and blood counts. It is filed as in vivo, mice. Here is the method:
Non-myeloablative bone marrow transplantation.
as §1
(§2) Hematopoietic cell parameter measurements. […] Hematopoietic parameters were analyzed using an Element HT5 Veterinary Hematology Analyzer (Heska, Loveland, Colorado, United States of America).
In general terms: A flow cytometer gives signals particle by particle.

In data set [4] the test system is lethally irradiated mice transplanted with Trp53-heterozygous cells. The experiment in a line: Dox cardiotoxicity in myeloablative (competitive) BMT mice, 30% Trp53^+/− or wild-type cells. Here is the method: as §1
Quantitative RT-PCR. Mouse total RNA was isolated using QIAzol reagent (Catalog No. 79306; Qiagen, Inc., Germantown, Maryland, United States of America), and was purified on the QIAcube. 1 μg RNA was reverse transcribed with a High-capacity cDNA Reverse Transcription Kit (Catalog No. 4368814; Thermo Fisher Scientific). qRT-PCR was performed with POWERUP™ SYBR™ Green reagent (Catalog No. 4367659; Thermo Fisher Scientific) in a QUANTSTUDIO™ 6 Flex PCR system (Thermo Fisher Scientific). Gene expression was calculated relative to 36b4 and normalized to controls. Data were calculated by AACt approach.

In a further data set the test system is C57BL6/J wild type mice. Kind of data set: Single bolus of Dox in wild-type mice; cardiac parameters, blood counts, cardiac-resident leukocytes. It is filed as in vivo. The protocol: as §1, §2
Data set [5] concerns mice transplanted with wild-type or Trp53 mutant cells.
Experimental: Doxorubicin administration. Pattern 1: adoptive BMT mice were injected with doxorubicin 6 weeks after BMT using a model of therapy-related clonal hematopoiesis (Wang et al., 2020) involving 3 rounds of 2 mg/kg i.p. injection, with 3 weeks between each round. Pattern 2: competitive BMT mice, Trp53-Myelo-KO mice, Ccr2^gfp/gfp mice, and mice in neutrophil depletion and neutrophil recruitment inhibition studies were injected with doxorubicin with a dose of 15 μg/g (body weight) split into 3 injections at indicated time points. Pattern 3: wild-type mice were injected with a single dose of doxorubicin (15 μg/g) at indicated time points.
Echocardiography. Cardiac function was assessed before and after Dox administration at indicated time points using a Vevo 2100 ultrasound system equipped with MS400D probe (FUJIFILM VisualSonics Inc., Toronto, Ontario, Canada). Echocardiography was performed as described in Wang et al., 2019. Briefly, mice were anesthetized with isoflurane at a concentration of 5% (induction phase) and 1-1.5% (maintenance phase). Each animal was placed on the heating table in a supine position with the extremities taped to the table through four electrocardiography leads. Chest fur was removed with a chemical hair remover, and ultrasound gel was applied to the thorax surface to improve the visibility of the cardiac chambers. Left ventricular diameter at end-diastole (LVDd, mm), left ventricular diameter at end-systole (LVDs, mm), posterior wall thickness in diastole (PWTd, mm), and fractional shortening (FS, %) were measured from M-mode images obtained by short-axis view visualizing both mid papillary muscles. Measurements and analysis were performed by two individuals who were blinded to the identity of the experimental groups of mice using a Vevo Lab software (FUJIFILM VisualSonics Inc.).
The mark [6] stands for this setting: adoptive BMT mice, Dox in cycles vs saline.
Where [7] appears, read: Trp53 heterozygous mutant vs wild-type bone marrow, 7 days after single Dox 15 μg/g.
Where [8] appears, read: single bolus of Dox 15 μg/g i.p., up to 14 days.
[9] abbreviates: adoptive BMT mice treated with Dox.
The mark [10] stands for this setting: mice transplanted with wild-type cells, Dox cycles.
The mark [11] stands for this setting: mice with Trp53^R27OH mutant blood cells vs wild-type cells, Dox regimen.

Each structure is given as a SMILES string. Read-outs that look alike come from different tables or passages of the source.

As to `N#Cc1ccc(NC(=O)Nc2ccccc2Br)c2[nH]nnc12` [SB265610, 1-(2-Bromophenyl)-3-(4-cyano-1H-benzo[d] [1,2,3]triazol-7-yl)urea, N-(2-Bromophenyl)-N′-(7-cyano-1H-benzotriazol-4-yl)urea], on CXCR2, the “neutrophil influx to the hearts” value was “reduced”. The “effects of Dox on cardiac wall thinning and function” value at CXCR2 (14-day timepoint) was “reversed”.

As for `COc1cccc2c1C(=O)c1c(O)c3c(c(O)c1C2=O)C[C@@](O)(C(=O)CO)C[C@@H]3O[C@H]1C[C@H](N)[C@H](O)[C@H](C)O1` [Dox, doxorubicin], the “myocardial transcripts that encode inflammatory mediators” value in data set [1] is given as “upregulation”. The survival entry in data set [2] is given as “reduced survival”. Further, the “cardiac dysfunction after Dox” value in the data set with Ccr2-deficient mice is “comparable”. Further, in data set [3] (Dox vs saline control, at termination of the experiment), the “proportions of donor-derived Trp53^+/− cells in bone marrow LSK, LT-HSC and GMP fractions” value was “considerably higher”. In addition, in data set [3] (setting [6]), the “expansion of donor-derived Trp53^+/− cells in circulating cell populations” value was “further expansion” and the “expansion of transplanted wild-type cells in circulating cell populations” value was “little or no effect”. Also, the “hemoglobin levels and absolute numbers of hematopoietic cell types” value in data set [3] (after the fourth cycle of Dox, prolonged administration) was “altered some of these parameters”. Besides, the “expansion of donor-derived Trp53^R27OH clones in circulating leukocytes and bone marrow HSPC fractions” value in data set [3] (serial Dox administration, adoptive BMT) is “selective expansion”. In data set [4] (8 weeks after Dox, mutant Trp53 vs wild-type cells), the “heart transcripts of inflammatory mediators Il1b, Il6 and Tnf” value was “significant increase”. The “fractional shortening and posterior wall thickness of the heart” value in data set [4] (Trp53^+/− vs wild-type group, VAF 0.15, after Dox) is listed as “significant reductions”. Also, in data set [4] (setting [7]), the “neutrophil recruitment to the heart” value is reported as “greater neutrophil recruitment” and the “numbers of Ly6C^hi monocytes or macrophages within cardiac tissue” value is “no effect”. Also, the “cardiac wall dimension and function” value in the data set on C57BL6/J wild type mice (single bolus of Dox 15 μg/g i.p., 14 days) is “reductions”. Moreover, in the data set with C57BL6/J wild type mice (setting [8]), the body weight entry is on record as “time-dependent loss” and the heart weight entry is listed as “time-dependent loss”. Further, the peripheral blood monocytes entry with C57BL6/J wild type mice (single bolus of Dox, 7-day timepoint) is recorded as “transient increase”. Further, in the data set with C57BL6/J wild type mice (single bolus of Dox, at 7 days, sustained to 14 days), the peripheral blood neutrophils result is on record as “increase”. In the data set with C57BL6/J wild type mice (single bolus of Dox, levels maintained to 14 days), the “neutrophil recruitment to the heart” value is on record as “reached a peak at 7 days”. Moreover, the cardiac-resident macrophage number result in the data set on C57BL6/J wild type mice (single bolus of Dox, nadir at 7 days) is “decreased”. For the same compound, the cardiac-resident monocyte number result in the data set with C57BL6/J wild type mice (single bolus of Dox, peak at 7 days) is recorded as “increased”. Moreover, in data set [5] (setting [9]), the “capillary density in the myocardium” value is recorded as “reduced capillary density” and the “fibrosis in the myocardium” value is “greater fibrosis”. Moreover, in data set [5] (setting [10]), the “cardiac contractility (echocardiography)” value is “deterioration” and the “ventricular wall (echocardiography)” value is “thinning”. In data set [5] (setting [11]), the “cardiac contractility (echocardiography)” value is given as “significant reduction” and the “ventricular wall (echocardiography)” value is on record as “wall thinning”. Further, the “functional impairment and wall thinning” value in data set [5] (mice with expanding Trp53^+/− clones vs wild-type cells, Dox cycles) is reported as “significantly greater”.

The record behind these values is patent publication US20240148765A1, “COMPOSITIONS AND METHODS FOR TREATING AND/OR PREVENTING THERAPY-RELATED CARDIOMYOPATHY ASSOCIATED WITH NEUTROPHIL INFILTRATION” (University of Virginia Patent Foundation, priority 2021, published 2024).
